This is an account of results in US20030073832A1, “Novel aminophenyl ketone derivatives” (priority 2001, published 2003).

In experiment [1] the test system is IL-1β. The experiment is described as follows: Inhibition of IL-1β secretion from LPS stimulated peripheral blood mononuclear cells. The class given is cell-based. As to conditions: PBMC; LPS stimulated human peripheral blood mononuclear cells, 18 hours, ELISA; read-out: The median inhibition concentration (IC50, nM) of IL-1β. The method, then: (§1) To study the effect of compounds of the present invention in vitro the inhibition of the IL-1β and TNF-α secretion was measured using the following procedure:
(§2) Cytokine production was measured in the media from lipopolysaccharide (LPS) stimulated peripheral blood mononuclear cells. The mononuclear cells were isolated from human peripheral blood by Lymphoprep® (Nycomed, Norway) fractionation and suspended in RPMI 1640 (growth medium) with foetal calf serum (FCS, 2%), at a concentration of 5×10^5 cells/ml. The cells were incubated in 24-well tissue culture plates in 1 ml aliquots. Test compounds were dissolved in dimethylsulfoxide (DMSO, 10 mM) and were diluted with the medium. Compounds were added to the cells for 30 minutes, then LPS ([…] final concentration) was added. The plates were incubated for 18 hours, and the concentration of IL-1β and TNF-α in the medium was determined by enzyme-linked immunosorbent assays. The median inhibitory concentrations (IC50) of the compounds were calculated.

For experiment [2], the system named is TNF-α. Description: Inhibition of TNF-α secretion from LPS stimulated peripheral blood mononuclear cells. Format: cell-based. The conditions noted are these: PBMC; LPS stimulated human peripheral blood mononuclear cells, 18 hours, ELISA; read-out: The median inhibition concentration (IC50, nM) of TNF-α. The method, then:
as §1, §2

In experiment [3] the test system is PMN-superoxide. The experiment is described as follows: Inhibition of PMN superoxide secretion (ferricytochrome C reduction). The class given is cell-based. The conditions noted are these: human PMN granulocytes primed with TNF-α, stimulated with fMLP; read-out: The median inhibition concentration (IC50, nM) of PMN-superoxide. On the procedure:
The compounds of the present invention also show similar activities in the ability to inhibit PMN (polymorphonuclear) superoxide secretion which is also indicative of potentially useful anti-inflammatory drugs. The compounds were tested using the following procedure:
Human polymorphonuclear (PMN) granulocytes were isolated from human blood by dextran sedimentation, Lymphoprep® fractionation and hypotonic lysis of contaminating erythrocytes.
Superoxide anion generation was measured as the superoxide dismutase inhibitable reduction of ferricytochrome C (Madhu, S.B. et al, Inflammation, 16, 241, (1992)). The cells were suspended in Hanks' balanced salt solution, and incubated for 10 minutes at 37° C. with test compounds. The cells were primed by the addition of TNF-α (3 ng/ml final concentration) for 10 minutes, and then ferricytochrome C, (final concentration 750 μg/ml), bovine serum albumin (BSA, final concentration 1 mg/ml) and formyl-methionyl-leucyl-phenylalanine (fMLP, final concentration 10^−7 M) were added for 3 minutes. The cells were chilled on ice, and were spun down. The optical densities in the cell-free supernatant was measured in a spectrophotometer. The median inhibitory concentration (IC50) of the compounds was calculated.

Experiment [4] addresses T1, p38α MAP kinase (Homo sapiens, UniProt Q16539).
T1 construct: made in house; host or cells: COS-1 cells (transient co-transfection, anti-FLAG immunoprecipitation)
The experiment is described as follows: p38α MAP kinase assay. As to conditions: immunoprecipitated activated FLAG-p38α from COS-1 cells, GST-ATF-2 substrate; read-out: p38 MAP kinase IC50. Format: biochemical. On the procedure: COS-1 cells (derived from African green monkey kidney fibroblast-like cell containing wild-type T antigen under control of the SV40 promotor) were obtained from ATCC (ATCC no. CRL-1650) and grown in growth medium (DMEM without phenolred, 10% FCS, 2 mM L-glutamine, 100U penicillin and 100 μg streptomycin/ml) at 37° C. with 5% CO2. The cells were passaged twice a week by trypsination (0.25% trypsin, 1 mM EDTA in PBS) and were split 1:10. The medium was changed every second or third day. The cell line was regularly tested with the Mycoplasma PCR Primer Set (Stratagene) and found to be free of Mycoplasma. Tissue culture media, FCS, L-glutamine and penicilin and streptomycin are from Bribco BRL, Gaithersburg, Md., USA.
Transient Expression of COS-1 Cells
On day one COS-1 cells were seeded in 143 cm^2 petridish with a density of 2×10^4celler/cm^2 in growth medium. At day 2 the cells were co-transfected with 5 μg (total) of experimental plasmid DNA, expressing the FLAG-p38α and FLAG-MKK6(EE). The plasmids were introduced into the COS-1 cells in serum-free medium using DOTAP™ (Boehringer-Mannheim, Mannheim, Germany). Plasmid DNA was prepared and purified using the QIAGEN EndoToxin-free Maxiprep-500 kit (Hilden, Germany). Briefly, DNA and DOTAP™ were mixed for exactly 15 min. at 37° C. in the CO2 incubator. […]

T1 sequence (Q16539 whole entry): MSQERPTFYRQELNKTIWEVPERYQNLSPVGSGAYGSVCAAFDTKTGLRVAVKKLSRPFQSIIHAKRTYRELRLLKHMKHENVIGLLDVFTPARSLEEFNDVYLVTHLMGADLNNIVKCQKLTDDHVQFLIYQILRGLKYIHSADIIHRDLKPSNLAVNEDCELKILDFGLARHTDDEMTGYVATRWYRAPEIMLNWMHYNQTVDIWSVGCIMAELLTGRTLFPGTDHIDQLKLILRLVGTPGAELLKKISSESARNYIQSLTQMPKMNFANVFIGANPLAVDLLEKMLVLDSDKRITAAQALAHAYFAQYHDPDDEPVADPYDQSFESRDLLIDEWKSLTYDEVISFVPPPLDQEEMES

Take `Cc1ccccc1Nc1ccc(C(=O)c2sccc2Cl)c(Cl)c1` [Compound 101, 4-(2-tolylamino)-2-chlorophenyl 3-chloro-2-thienyl ketone]: the IC50 is 72 nM in experiment [1], 17 nM in experiment [2], 6.3 nM in experiment [3] and 93.3 nM in experiment [4].
For the compound `Cc1ccccc1C(=O)c1ccc(Nc2ccccc2N)cc1Cl` [Ref. comp., 4-(2-aminophenylamino)-2-chloro-2′-methylbenzophenone, reference compound], the results for the IC50 in experiment [1], in experiment [2] and in experiment [3] were 13 nM, 7.1 nM and 5 nM, respectively.
